The source of these data is US6448256B1, “Antibiotic prodrugs” (University of Massachusetts, priority 1999, dated 2002).

In assay [1] the test system is S. aureus (methicillin-sensitive Smith strain). As to the kind of experiment: ip/ip mouse protection against lethal S. aureus infection. The arrangement: mice protected from death: dose or concentration left out as unconfirmed. Format: in vivo, mice. Here is the method: Step 1: Screening—Each candidate prodrug is screened for activity in an ip/ip S. aureus protection model. Candidates that display efficacy equivalent to that of HB-EMAU and HB-IMAU are selected for advanced pharmacokinetic analysis and application in the more relevant mouse thigh model of infection.
The efficacy of the propyl derivatives was tested against murine staphylococcal infection in vivo. A simple “ip/ip” system was used, in which 20 gram mice (10 each) were injected ip (intraperitoneally) with a lethal dose (2.3×10^7 CFU) of the methicillin-sensitive Smith strain of S. aureus. The mice were then immediately injected ip with the antibiotic agent as a 1:9 mixture of DMSO:peanut oil. Vancomycin was used as the positive control drug.
Both hydroxybutyl compounds were tested at 10 mg/kg in the mouse protection experiment against lethal S. aureus infection described in Example 4 above.

Another assay has as its system S. aureus. As to the kind of experiment: Mouse thigh infection model. Format: in vivo, mice. The settings on record: ip in saline, 40 mg/kg every four hours. An excerpt:
The mouse thigh infection model has been pioneered and used by Craig and colleagues (Craig, W. A., Redington, J. and S. C. Ebert (1991) J. Antimicr. Chemother. 27:Suppl C, 29-40; Leggett, J. E., Ebert, S., Fantin, B. and W. A. Craig (1991) Scand. J. Inf. Dis. 74:179-184). It represents a rational, flexible, cost-effective, and reproducible experimental approach for predicting the efficacy of a bacterial infection in a human patient. It is particularly useful in the present invention, because it is adaptable to the use of clinically relevant strains of Staphylococcus and Enterococcus.
Mice are made neutropenic to render them susceptible to infection with a wide variety of bacteria. […] The infected thigh of each animal is homogenized in sterile saline, and the bacterial concentration in the homogenate is determined by dilution and plating. […]
Testing can be carried out as follows. […] Treatment with the test agent and the positive control agent (vancomycin) is initiated at 2 hours post-infection, using a route (Po, ip, or sc), schedule, and dosing regimen determined by the agent's in vitro potency and specific pharmacokinetic properties.
The compounds are given by ip injection of 0.05 ml of a saline solution. […] Results are expressed as the log reduction in bacterial growth as a fraction of that in vehicle-treated animals.

Regarding `CN[C@H](CC(C)C)C(=O)N[C@H]1C(=O)N[C@@H](CC(N)=O)C(=O)N[C@H]2C(=O)N[C@H]3C(=O)N[C@H](C(=O)N[C@H](C(=O)O)c4cc(O)cc(O)c4-c4cc3ccc4O)[C@H](O)c3ccc(c(Cl)c3)Oc3cc2cc(c3O[C@@H]2O[C@H](CO)[C@@H](O)[C@H](O)[C@H]2O[C@H]2C[C@](C)(N)[C@H](O)[C@H](C)O2)Oc2ccc(cc2Cl)[C@H]1O` [vancomycin, reference compound], the protection of mice result in assay [1] (20 mg/kg, positive control) is “protected all mice”. In addition, the “mice protected from death” value in assay [1] (control drug, four day experiment) is listed as “all ten mice”. Besides, the “log reduction in S. aureus proliferation compared with control thighs” value in the assay with S. aureus is given as 2-4 log.
